Details: Liquid, Frequency=2 MHz, Single path-length method

CCO [ethanol]
Details | speed of sound [m/s]
323.31 K, 1410 kPa | 1070.7
323.31 K, 5245 kPa | 1096.8
323.31 K, 11101 kPa | 1135
323.31 K, 17687 kPa | 1174.5
323.31 K, 23114 kPa | 1204.2
323.31 K, 30237 kPa | 1241.9
323.31 K, 36831 kPa | 1274.5
323.31 K, 43809 kPa | 1306
323.31 K, 50864 kPa | 1337.3
323.31 K, 58500 kPa | 1369.4
323.31 K, 62862 kPa | 1386.2
347.1 K, 1446 kPa | 991.29
347.1 K, 4092 kPa | 1011.8
347.1 K, 7163 kPa | 1035
347.1 K, 14616 kPa | 1085.6
347.1 K, 21177 kPa | 1126.4
347.1 K, 28408 kPa | 1168.1
347.1 K, 35022 kPa | 1203.4
347.1 K, 42067 kPa | 1238.6
347.1 K, 48843 kPa | 1270.3
347.1 K, 54137 kPa | 1294.1
347.1 K, 58348 kPa | 1312.6
347.1 K, 62859 kPa | 1331.6
369.38 K, 1432 kPa | 914.53
369.38 K, 3923 kPa | 936.5
369.38 K, 7109 kPa | 963.26
369.38 K, 11382 kPa | 996.24
369.38 K, 19601 kPa | 1053.8
369.38 K, 27704 kPa | 1104.7
369.38 K, 33060 kPa | 1135.3
369.38 K, 41165 kPa | 1179.1
369.38 K, 49420 kPa | 1220.3
369.38 K, 54796 kPa | 1246.1
369.38 K, 58367 kPa | 1261.5
369.38 K, 65148 kPa | 1291.2
397.28 K, 1546 kPa | 811.26
397.28 K, 4302 kPa | 840.39
397.28 K, 7333 kPa | 870.18
397.28 K, 12482 kPa | 915.79
397.28 K, 18105 kPa | 960.62
397.28 K, 24432 kPa | 1006.2
397.28 K, 29996 kPa | 1043.3
397.28 K, 36074 kPa | 1080.7
397.28 K, 44752 kPa | 1129.5
397.28 K, 49805 kPa | 1156
397.28 K, 58415 kPa | 1198.6
397.28 K, 63790 kPa | 1223.5
422.9 K, 1514 kPa | 701.53
422.9 K, 5675 kPa | 755.36
422.9 K, 9530 kPa | 798.44
422.9 K, 15206 kPa | 853.77
422.9 K, 23492 kPa | 923.37
422.9 K, 31793 kPa | 984.06
422.9 K, 38446 kPa | 1027.7
422.9 K, 47571 kPa | 1082
422.9 K, 53132 kPa | 1112.2
422.9 K, 58734 kPa | 1141.2
422.9 K, 63754 kPa | 1166.2

— the NIST ThermoML archive (doi:10.1021/acs.jced.7b01018)
